Results taken from article PMC7922803, “Development and Validation of an LC-MS/MS Method for Quantification of the Novel Antibacterial Candidate DA-7010 in Plasma and Application to a Preclinical Pharmacokinetic Study” (Pharmaceuticals, 2021).
Several values for one entry are separate records, joined by “and”; a condition that tells them apart may be missing. Equal values may be shown once.

Legend:
[1] = Pharmacokinetic study after single oral administration to dogs; assay type: in vivo
From the text: (§1) The validated method was applied to pharmacokinetic studies of DA-7010 in mice, rats, and dogs. The protocols for the animal study were approved by the Department of Laboratory Animals, Institutional Animal Care and Use Committee (IACUC), on the Sungsim Campus of the Catholic University of Korea (approval no. 2014-022) or by IACUC of Biotoxtech (Cheongju, South Korea) (approval no. 140765). Male ICR mice and Sprague-Dawley rats (~8 weeks old) were purchased from Samtaco Bio (Osan, South Korea). Male beagle dogs (~10 months old), which are products from Beijing Marshall Biotechnology (Beijing, China), were used for this study. The accommodation and handling procedures for the animals were similar to those previously reported. Prior to dosing, the animals were fasted for 15 h and allowed to drink water freely. DA-7010 hydrochloride was administered in the pharmacokinetic study, and the dose of DA-7010 described below is based on the free base form of DA-7010.
For the oral administration of DA-7010 in dogs, 3 mg/kg DA-7010 was loaded in a gelatin capsule (size 12, Torpac Inc., Fairfield, NJ, USA) without other excipients. Approximately 2 mL of blood was collected via the cephalic vein using a heparinized (100 IU/mL) 23 G syringe at pre-dose and 15, 30, 45, 60, 120, 240, 360, 480, 720, and 1440 min after the administration of the drug. The collection and storage of each plasma sample (25 μL) and extra plasma sample were performed using the same procedure described above.
(§2) The pharmacokinetic parameters were calculated using noncompartmental analyses (WinNonlin; Pharsight Corporation, Mountain View, CA, USA). The AUC0-∞ was calculated using the trapezoidal rule-extrapolation method. The Cmax and Tmax were read directly from the experimental data.

[2] = Pharmacokinetic study after single oral administration to rats; assay type: in vivo; conditions: male, Sprague-Dawley, plasma, rat
From the text: as §1
For the rat, the carotid artery was cannulated for serial blood sampling. DA-7010 (dissolved in distilled water) at a dose of 3 mg (in 2 mL) per kilogram was administered orally to the rats (n = 7) using gastric gavage. Blood samples (~50 μL) were collected at 0, 5, 10, 20, 30, 60, 120, 240, 360, 480, and 720 min via the carotid artery following the oral administration of the drug. The cannula was flushed immediately after each blood sampling to prevent blood clotting using a 0.3 mL heparinized 0.9% NaCl-injectable solution (20 units/mL). The same procedure described above was used for the collection and storage of the plasma samples.
as §2

[3] = Stability of DA-7010 in mouse plasma under various storage conditions; assay type: in vitro ADME; conditions: n = 3, mean ± SD
Experimental: (§3) The stability of DA-7010 in the plasma from the mice, rats, and dogs was evaluated by analyzing 3 replicates of low, medium, and high QC samples under various storage conditions: the bench-top short-term stability (at room temperature for 8 h), post-preparative stability (prepared samples kept in LC vials at 4 °C for 24 h), freeze–thaw stability (3 freeze/thaw (−20 °C/room temperature) cycles), and long-term freezing stability (−20 °C for 1 month). The analyte was determined to be stable when the estimated recovery (determined concentration/nominal concentration × 100%) was in the range of 85–115% and the RSD was < 15%.

[4] = Stability of DA-7010 in dog plasma under various storage conditions; assay type: in vitro ADME; conditions: n = 3, mean ± SD
Experimental: as §3

[5] = test system: Gram-negative bacteria (except for Pseudomonas aeruginosa); parameters: method as in earlier work; conditions: cited from earlier work
[6] = test system: carbapenem-resistant Acinetobacter baumannii; parameters: method as in earlier work; conditions: mice systemically infected with carbapenem-resistant Acinetobacter baumannii; cited from earlier work
[7] = Pharmacokinetic study after single oral administration to mice; assay type: in vivo; conditions: male, ICR, mouse, plasma
From the text: as §1
DA-7010 (dissolved in distilled water) at a dose of 3 mg (in 10 mL) per kilogram was administered orally to the mouse groups A and B (n = 6 each) using gastric gavage. Blood samples (~ 50 μL) were collected into separate heparinized capillary tubes from the retro-orbital plexuses of mice that were under light anesthesia, which was achieved by isoflurane inhalation at 5, 30, 120, and 480 min for group A and 15, 60, 240, and 600 min for group B following the oral administration of DA-7010. The collected sample was immediately centrifuged, and a 25 μL plasma sample was stored at −20 °C until it was used for the LC-MS/MS analyses of DA-7010.
as §2

[8] = Stability of DA-7010 in rat plasma under various storage conditions; assay type: in vitro ADME; conditions: n = 3, mean ± SD
Experimental: as §3

[9] = Stability of DA-7010 in plasma, summary over all species; assay type: in vitro ADME, mice, rats, and dogs
Experimental: as §3

[10] = male, beagle, dog, plasma, dogs (n = 4), single oral dose 3 mg/kg in gelatin capsule, mean ± SD
[11] = representative sample 4 h after oral 3 mg/kg, read-out: Plasma concentration of DA-7010
[12] = rats (n = 7), single oral dose 3 mg/kg, mean ± SD
[13] = 3 freeze/thaw (–20 °C/room temperature) cycles, nominal 30 ng/mL
[14] = 3 freeze/thaw (–20 °C/room temperature) cycles, nominal 400 ng/mL
[15] = 3 freeze/thaw (–20 °C/room temperature) cycles, nominal 8000 ng/mL
[16] = long term (‒20 °C over 1 month), nominal 30 ng/mL
[17] = long term (‒20 °C over 1 month), nominal 400 ng/mL
[18] = long term (‒20 °C over 1 month), nominal 8000 ng/mL
[19] = prepared plasma samples in LC vials, post-preparative (prepared samples 4 °C 24 h), nominal 30 ng/mL
[20] = prepared plasma samples in LC vials, post-preparative (prepared samples 4 °C 24 h), nominal 400 ng/mL
[21] = prepared plasma samples in LC vials, post-preparative (prepared samples 4 °C 24 h), nominal 8000 ng/mL
[22] = short term (room temperature 8 h), nominal 30 ng/mL
[23] = short term (room temperature 8 h), nominal 400 ng/mL
[24] = short term (room temperature 8 h), nominal 8000 ng/mL
[25] = mice, single oral dose 3 mg/kg, from mean concentration–time profile

C[C@@H]1COB2O[C@H](CN)c3cccc(c32)O1 [DA-7010, ((2S,7R)-7-methyl-7,8-dihydro-2H-1,6,9-trioxa-9a-borabenzo[cd]azulen-2-yl)methanamine]
AUC(0-inf) [1, 10]: 21800 ng·h/mL | Cmax [1, 10]: 1820 ± 90.1 ng/mL | half-life ([1]; male, beagle, dog, plasma, dogs (n = 4), single oral dose 3 mg/kg in gelatin capsule, mean ± SD, read-out: Terminal half-life): 7.53 ± 0.563 h | Tmax ([1]; male, beagle, dog, plasma, dogs (n = 4), single oral dose 3 mg/kg in gelatin capsule, median (range)): 1 h | concentration at 4 h ([1]; male, beagle, plasma, dog, representative sample 4 h after oral 3 mg/kg, read-out: Plasma concentration of DA-7010): 1950 ng/mL | Systemic exposure in dogs relative to mice or rats ([1]; single oral dose 3 mg/kg): approximately four times higher | concentration at 4 h [2, 11]: 648 ng/mL | AUC(0-inf) [2, 12]: 5320 ng·h/mL | Cmax [2, 12]: 1330 ± 427 ng/mL | half-life ([2]; rats (n = 7), single oral dose 3 mg/kg, mean ± SD, read-out: Terminal half-life): 2.88 ± 0.81 h | Tmax ([2]; rats (n = 7), single oral dose 3 mg/kg, median (range)): 0.333 h | recovery at 30 ng/mL [3, 13]: 109 ± 6.63% | recovery at 400 ng/mL [3, 14]: 91.2 ± 2.22% | recovery at 8000 ng/mL [3, 15]: 87.7 ± 2.58% | recovery at 1 month, 30 ng/mL [3, 16]: 106 ± 1.54% | recovery at 1 month, 400 ng/mL [3, 17]: 95.5 ± 3.04% | recovery at 1 month, 8000 ng/mL [3, 18]: 88.5 ± 1.77% | recovery at 24 h, 30 ng/mL [3, 19]: 106 ± 5.14% | recovery at 24 h, 400 ng/mL [3, 20]: 92.7 ± 2.58% | recovery at 24 h, 8000 ng/mL [3, 21]: 89.9 ± 7.84% | recovery at 8 h, 30 ng/mL [3, 22]: 109 ± 4.97% | recovery at 8 h, 400 ng/mL [3, 23]: 97.5 ± 6.48% | recovery at 8 h, 8000 ng/mL [3, 24]: 89 ± 2.24% | recovery at 30 ng/mL [4, 13]: 110 ± 3.32% | recovery at 400 ng/mL [4, 14]: 107 ± 2.01% | recovery at 8000 ng/mL [4, 15]: 114 ± 0.0718% | recovery at 1 month, 30 ng/mL [4, 16]: 113 ± 0.5% | recovery at 1 month, 400 ng/mL [4, 17]: 97.3 ± 1.22% | recovery at 1 month, 8000 ng/mL [4, 18]: 111 ± 3.13% | recovery at 24 h, 30 ng/mL [4, 19]: 110 ± 5.48% | recovery at 24 h, 400 ng/mL [4, 20]: 108 ± 1.72% | recovery at 24 h, 8000 ng/mL [4, 21]: 116 ± 2.34% | recovery at 8 h, 30 ng/mL [4, 22]: 107 ± 3.08% | recovery at 8 h, 400 ng/mL [4, 23]: 92.9 ± 1.62% | recovery at 8 h, 8000 ng/mL [4, 24]: 108 ± 1.22% | minimum inhibitory concentration (MIC) [5]: 0.25 to 2 µg/mL | ED50 (effective oral dose that protected 50% of mice) [6]: 3 mg/kg and 1.9 to 3 mg/kg | Cmax [7, 25]: 1280 ng/mL | Tmax [7, 25]: 0.25 h | AUC(0-inf) ([7]; mice, single oral dose 3 mg/kg, from mean concentration–time profile (n = 6 per point)): 3920 ng·h/mL | half-life ([7]; mice, single oral dose 3 mg/kg, from mean concentration–time profile, read-out: Terminal half-life): 2.08 h | concentration at 4 h [7, 11]: 334 ng/mL | recovery at 30 ng/mL [8, 13]: 107 ± 5.92% | recovery at 400 ng/mL [8, 14]: 94.8 ± 6.2% | recovery at 8000 ng/mL [8, 15]: 100 ± 0.407% | recovery at 1 month, 30 ng/mL [8, 16]: 85.5 ± 0.618% | recovery at 1 month, 400 ng/mL [8, 17]: 95.2 ± 3.3% | recovery at 1 month, 8000 ng/mL [8, 18]: 107 ± 2.67% | recovery at 24 h, 30 ng/mL [8, 19]: 95.5 ± 3.65% | recovery at 24 h, 400 ng/mL [8, 20]: 101 ± 1.33% | recovery at 24 h, 8000 ng/mL [8, 21]: 111 ± 4.06% | recovery at 8 h, 30 ng/mL [8, 22]: 110 ± 4.64% | recovery at 8 h, 400 ng/mL [8, 23]: 97.9 ± 0.394% | recovery at 8 h, 8000 ng/mL [8, 24]: 104 ± 0.647% | Stability, mean recoveries ([9]; 8 h at room temperature, 24 h in LC vial at 4 °C after preparation, 1 month at –20 °C): > 85.5% | Stability, mean recoveries ([9]; after three freeze/thaw (–20 °C/room temperature) cycles): > 87.7%
